Experiments:
human β1AR [1] = target: T1, human β1AR (Homo sapiens, UniProt P08588); assay: phospho-ERK immunoblotting in β1AR-HEK 293 cells; conditions: agent alone
human cardiac β1AR = target: T2, human cardiac β1AR (Homo sapiens, UniProt P08588); assay: AC activity in cardiac plasma membranes from non-failing donor human hearts; assay type: biochemical; conditions: agent alone, absence of IgG3 autoantibodies
T2 construct: non-failing human hearts were used as an endogenous system; tissue Cleveland Clinic's Tissue Bank; host or cells: non-failing donor human heart, plasma membrane fraction
T2 sequence (P08588 whole entry): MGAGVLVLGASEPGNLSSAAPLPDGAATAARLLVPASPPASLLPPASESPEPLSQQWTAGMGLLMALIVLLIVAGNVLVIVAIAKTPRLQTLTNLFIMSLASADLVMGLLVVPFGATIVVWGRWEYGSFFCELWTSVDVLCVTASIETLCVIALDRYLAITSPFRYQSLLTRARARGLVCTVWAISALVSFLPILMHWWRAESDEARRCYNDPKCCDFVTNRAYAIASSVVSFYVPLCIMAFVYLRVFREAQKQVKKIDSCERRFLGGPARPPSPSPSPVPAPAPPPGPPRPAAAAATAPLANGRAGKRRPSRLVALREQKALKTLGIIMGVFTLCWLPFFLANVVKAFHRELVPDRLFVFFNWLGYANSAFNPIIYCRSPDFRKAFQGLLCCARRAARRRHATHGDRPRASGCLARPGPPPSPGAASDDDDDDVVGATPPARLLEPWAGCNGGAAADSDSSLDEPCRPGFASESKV
Experimental: (§1) Briefly the treated cells were scraped using osmotic lysis buffer (5 mM Tris-HCl, pH 7.4; 5 mM EDTA; 1 mM PMSF; 2 μg/mL Leupeptin and 1 μg/mL Aprotinin) and homogenized by douncing. Cardiac tissue samples from non-failing human hearts were homogenized in osmotic lysis buffer using Polytron® homogenizer. This was followed by toggling the samples for 10 mins. The intact cells and nuclei were removed by centrifuging these samples at 2500 rpm for 5 mins. The collected supernatant was centrifuged at 17500 rpm for 30 minutes to obtain the plasma membrane as pellet. All the above steps were performed at 4° C.

human β1AR [2] = target: T1, human β1AR; assay: cAMP generation in β1AR-HEK 293 cells (Catchpoint cAMP kit); conditions: agent alone, 10 μM for 10 min, serum starved cells, vs control
Experimental: cAMP generation assay was performed using whole cell lysates. The assay was done using the standard manufacturer's protocol.

human β1AR [3] = target: T1, human β1AR; assay: Adenylyl cyclase (AC) assay on plasma membranes of HEK-β1AR cells (G-protein coupling); assay type: biochemical; design: FLAG; expressed in transfected cells; pcDNA3.1(-) plasmid, a gift from Dr. Yang K. Xiang; conditions: agent alone, isolated plasma membranes
Experimental: as §1

T1 sequence (P08588 whole entry): as above

CC(CCc1ccc(O)cc1)NCCc1ccc(O)c(O)c1 (stereo not shown) [Dob, dobutamine] was tested, and the ERK phosphorylation (human β1AR [1]) was “significantly increased”, the AC activity (human cardiac β1AR) was “activating AC activity” and the cAMP generation (human β1AR [2]) was “significantly increased”. The AC activity (human β1AR [3]) was “significantly increased AC activity”.
